Data taken from patent US4071627A, “2-Oximino-tetrahydro-1,4-thiazin-5-one compounds and pesticidal carbamate derivatives” (priority 1976, dated 1978).

Legend:
Assay type in all cases: in vivo
Parameters in all cases: key: A: excellent control; B: partial control; C: no control
[1] = test system: bean aphid (Aphis fabae Scop.); test: Bean Aphid Foliage Spray Test; conditions: 500 ppm, 24 hours, adults and nymphs
Description: (§1) Suspensions of the test compounds were prepared by dissolving one gram of compound in 50 milliliters of acetone in which had been dissolved 0.1 gram (10 percent of the weight of compound) of an alkylphenoxy polyethoxyethanol surfactant, as an emulsifying or dispersing agent. The resulting solution was mixed into 150 milliliters of water to give roughly 200 milliliters of a suspension containing the compound in finely divided form. The thus-prepared stock suspension contained 0.5 percent by weight of test compound. The test concentrations in parts per million by weight employed in the tests described hereinbelow were obtained by appropriate dilutions of the stock suspension with water. The test procedures were as follows:
Adults and nymphal stages of the bean aphid (Aphis fabae Scop.) reared on potted dwarf nasturtium plants at 65°-70° F. and 50-70 percent relative humidity, constituted the test insects. For testing purposes, the number of aphids per pot was standardized to 100-150 by trimming plants containing excess aphids.
The test compounds were formulated by diluting the stock suspension with water to give a suspension containing 500 parts of test compound per million parts of final formulation.
The potted plants (one pot per compound tested) infested with 100-150 aphids, were placed on a revolving turntable and sprayed with 100-110 milliliters of test compound formulated by use of a DeVilbiss spray gun set at 40 psig. air pressure. This application, which lasted 25 seconds, was sufficient to wet the plants to run-off. As a control, 100-110 milliliters of a water-acetone-emulsifier solution containing no test compound were also sprayed on infested plants. After spraying, the pots were placed on their sides on a sheet of white standard mimeograph paper which had been previously ruled to facilitate counting. Temperature and humidity in the test room during the 24 hour holding period were 65°-70° F. and 50-70 percent, respectively. Aphids which fell onto the paper and were unable to remain standing after being uprighted were considered dead. Aphids remaining on the plants were observed closely for movement and those which were unable to move the length of the body upon stimulation by prodding were considered dead. Percent mortality was recorded for various concentration levels.
(§2) In these tests the pesticidal activity of the compounds against aphid, mite, Southern Armyworm, Mexican Bean Beetle, and house fly was rated as follows: […]

[2] = test system: two-spotted mite (Tetranychus urticae Koch); test: Mite Foliage Spray Test; conditions: 500 ppm, six days, adults and nymphs
Description: as §1
Adults and nymphal stages of the two-spotted mite (Tetranychus urticae Koch), reared on Tengergreen bean plants at 80±5 percent relative humidity, were the test organisms. Infested leaves from a stock culture were placed on the primary leaves of two bean plants 6 to 8 inches in height, growing in a 21/2 inch clay pot. 150-200 Mites, a sufficient number for testing, transferred from the excised leaves to the fresh plants in a period of 24 hours. Following the 24 hour transfer period, the excised leaves were removed from the infested plants. The test compounds were formulated by diluting the stock suspension with water to give a suspension containing 500 parts of test compound per million parts of final formulation. The potted plants (one pot per compound) were placed on a revolving turntable and sprayed with 100-110 milliliters of test compound formulation by use of a DeVilbiss spray gun set at 40 psig. air pressure. This application, which lasted 25 seconds, was sufficient to wet the plants to run-off. As a control, 100-110 milliliters of a water solution containing acetone and emulsifier in the same concentrations as the test compound formulation, but containing no test compound, were also sprayed on infested plants. The sprayed plants were held at 80±5 percent relative humidity for six days, after which a mortality count of motile forms was made. Microscopic examination for motile forms was made on the leaves of the test plants. Any individual which was capable of locomotion upon prodding was considering living.
as §2

[3] = test system: southern armyworm (Prodenia eridania, (Cram.)); test: Southern Armyworm Leaf Spray Test; conditions: 500 ppm, three days, larvae
Description: as §1
Larvae of the southern armyworm (Prodenia eridania, (Cram.)), reared on Tendergreen bean plants at a temperature of 80°±5° F. and a relative humidity of 50±5 percent, constituted the test insects.
The test compounds were formulated by diluting the stock suspension with water to give a suspension containing 500 parts of test compound per million parts of final formulation. Potted Tendergreen bean plants of standard height and age were placed on a revolving turntable and sprayed with 100-110 milliliters of test compound formulation by use of a DeVilbiss spray gun set at 10 psig air pressure. This application, which lasted 25 seconds, was sufficient to wet plants to run-off. As a control, 100-110 milliliters of a water-acetone-emulsifier solution containing no test compound were also sprayed on infested plants. When dry, the paired leaves were separated and each one was placed in a 9 centimeter Petri dish lined with moistened filter paper. Five randomly selected larvae were introduced into each dish and the dishes were closed. The closed dishes were labeled and held at 80°-85° F. for three days. Although the larvae cound easily consume the whole leaf within 24 hours, no more food was added. Larvae which were unable to move the length of the body, even upon stimulation by prodding, were considered dead. Percent mortality was […] for various concentration levels.
as §2

[4] = test system: Mexican bean beetle (Epilachna varivestis, Muls.); test: Mexican Bean Beetle Leaf Spray Test; conditions: 500 ppm, three days, fourth instar larvae
Description: as §1
Fourth instar larvae of the Mexican bean beetle (Epilachna varivestis, Muls.), reared on Tendergreen bean plants at a temperature of 80°±5° F. and 50±5 percent relative humidity, were the test insects.
The test compounds were formulated by diluting the stock suspension with water to give a suspension containing 500 parts of test compound per million parts of final formation. Potted Tendergreen bean plants of standard height and age were placed on a revolving turntable and sprayed with 100-110 milliliters of test compound formulated by use of a DeVilbiss spray gun set at 10 psig air pressure. This application, which lasted 25 seconds, was sufficient to wet plants to run-off. As a control, 100-110 milliliters of a water-acetone-emulsifier solution containing no test compound were also sprayed on infested plants. When dry, the paired leaves were separated and each was placed in a 9 centimeter Petri dish lined with moistened filter paper. Five randomly selected larvae were introduced into each dish, and the dishes were closed. The closed dishes were labeled and held at a temperature of 80°±5° F. for three days. Although the larvae could easily consume the leaf within 24 to 48 hours, no more food was added. Larvae which were unable to move the length of the body, even upon stimulation, were considered dead.
as §2

[5] = test system: house flies (Musca domestica, L.); test: Fly Bait Test; conditions: 500 ppm, 24 hours, adults
Description: as §1
Four to six day old adult house flies (Musca domestica, L.), reared according to the specifications of the Chemical Specialities Manufacturing Association (Blue Book, McNair-Dorland Co., N.Y. 1954; pages 243-244, 261) under controlled conditions of 80°±5° F. and 50±5 percent relative humidity, were the test insects. The flies were immobilized by anesthetizing with carbon dioxide and 25 immobilized individuals, males and females, were transferred to a cage consisting of a standard food strainer about 5 inches in diameter which was inverted over a wrapping-paper-covered surface. The test compounds were formulated by diluting the stock suspension with a 10 percent (by weight) sugar solution to give a suspension containing 500 parts of test compound per million parts of final formulation, by weight. Ten milliliters of the test formulation were added to a souffle cup containing a 1-inch square of an absorbent cotton pad. This bait cup was introduced and centered on the blotting paper under the food strainer prior to admitting the anesthetized flies. The caged flies were allowed to feed on the bait for 24 hours, at a temperature of 80°±5° F. and the relative humidity of 50±5 percent.
as §2

Compound: CN1C(=O)CSC(=NO)C1(C)C [2-Oximino-3,3,4-trimethyltetrahydro-1,4-thiazin-5-one]
- Biological Activity, Aphid [1]: C
- Biological Activity, Mite [2]: C
- Biological Activity, Southern Armyworm [3]: C
- Biological Activity, Mexican Bean Beetle [4]: C
- Biological Activity, House Fly [5]: C

Compound: CC1C(=NO)SCC(=O)N1C (stereo not shown) [2-Oximino-3,4-dimethyltetrahydro-1,4-thiazin-5-one]
- Biological Activity, Mite [2]: C
- Biological Activity, Southern Armyworm [3]: C
- Biological Activity, Mexican Bean Beetle [4]: C
- Biological Activity, House Fly [5]: C

Compound: CCCCN1C(=O)CSC(=NO)C1C (stereo not shown) [2-Oximino-4-butyl-3-methyltetrahydro-1,4-thiazin-5-one]
- Biological Activity, Aphid [1]: C
- Biological Activity, Mite [2]: C
- Biological Activity, Southern Armyworm [3]: C
- Biological Activity, Mexican Bean Beetle [4]: C
- Biological Activity, House Fly [5]: C

Compound: CCN1C(=O)CSC(=NO)C1C (stereo not shown) [2-Oximino-4-ethyl-3-methyltetrahydro-1,4-thiazin-5-one]
- Biological Activity, Aphid [1]: C
- Biological Activity, Mite [2]: C
- Biological Activity, Southern Armyworm [3]: C
- Biological Activity, Mexican Bean Beetle [4]: C
- Biological Activity, House Fly [5]: C

Compound: CC(C)CN1C(=O)CSC(=NO)C1C (stereo not shown) [2-Oximino-4-isobutyl-3-methyltetrahydro-1,4-thiazin-5-one]
- Biological Activity, Aphid [1]: C
- Biological Activity, Mite [2]: C
- Biological Activity, Southern Armyworm [3]: C
- Biological Activity, Mexican Bean Beetle [4]: C
- Biological Activity, House Fly [5]: C

Compound: CNC(=O)ON=C1SCC(=O)N(C)C1(C)C [2-[O-(Methylcarbamoyl)oximino]-3,3,4-trimethyltetrahydro-1,4-thiazin-5-one]
- Biological Activity, Aphid [1]: B
- Biological Activity, Mite [2]: A
- Biological Activity, Southern Armyworm [3]: B
- Biological Activity, Mexican Bean Beetle [4]: A
- Biological Activity, House Fly [5]: A

Compound: CNC(=O)ON=C1SCC(=O)NC1(C)C [2-[O-(Methylcarbamoyl)oximino]-3,3-dimethyltetrahydro-1,4-thiazin-5-one]
- Biological Activity, Aphid [1]: A
- Biological Activity, Mite [2]: A
- Biological Activity, Southern Armyworm [3]: A
- Biological Activity, Mexican Bean Beetle [4]: A
- Biological Activity, House Fly [5]: A

Compound: CCCCN1C(=O)CSC(=NOC(=O)NC)C1C (stereo not shown) [2-[O-(Methylcarbamoyl)oximino]-4-butyl-3-methyltetrahydro-1,4-thiazin-5-one]
- Biological Activity, Aphid [1]: C
- Biological Activity, Mite [2]: C
- Biological Activity, Southern Armyworm [3]: C
- Biological Activity, Mexican Bean Beetle [4]: B
- Biological Activity, House Fly [5]: B

Compound: CCN1C(=O)CSC(=NOC(=O)NC)C1C (stereo not shown) [2-[O-(Methylcarbamoyl)oximino]-4-ethyl-3-methyltetrahydro-1,4-thiazin-5-one]
- Biological Activity, Aphid [1]: B
- Biological Activity, Mite [2]: A
- Biological Activity, Southern Armyworm [3]: B
- Biological Activity, Mexican Bean Beetle [4]: B
- Biological Activity, House Fly [5]: A

Compound: CNC(=O)ON=C1SCC(=O)N(CC(C)C)C1C (stereo not shown) [2-[O-(Methylcarbamoyl)oximino]-4-isobutyl-3-methyltetrahydro-1,4-thiazin-5-one]
- Biological Activity, Aphid [1]: C
- Biological Activity, Mite [2]: C
- Biological Activity, Southern Armyworm [3]: C
- Biological Activity, Mexican Bean Beetle [4]: C
- Biological Activity, House Fly [5]: A

Compound: CNC(=O)ON=C1SCC(=O)N(C(C)C)C1C (stereo not shown) [2-[O-(Methylcarbamoyl)oximino]-4-isopropyl-3-methyltetrahydro-1,4-thiazin-5-one]
- Biological Activity, Aphid [1]: C
- Biological Activity, Mite [2]: B
- Biological Activity, Southern Armyworm [3]: C
- Biological Activity, Mexican Bean Beetle [4]: C
- Biological Activity, House Fly [5]: A

Compound: CC(=O)N(C)C(=O)ON=C1SCC(=O)N(C)C1C (stereo not shown) [2-[O-(N-Acetyl-N-methylcarbamoyl)oximino]-3,4-dimethyltetrahydro-1,4-thiazin-5-one]
- Biological Activity, Aphid [1]: C
- Biological Activity, Mite [2]: C
- Biological Activity, Southern Armyworm [3]: A
- Biological Activity, Mexican Bean Beetle [4]: C
- Biological Activity, House Fly [5]: C

Compound: CN(C)SN(C)C(=O)ON=C1SCC(=O)NC1(C)C [2-[O-(N-Dimethylaminosulfenyl-N-methylcarbamoyl)oximino]-3,3-dimethyltetrahydro-1,4-thiazin-5-one]
- Biological Activity, Aphid [1]: A
- Biological Activity, Mite [2]: A
- Biological Activity, Southern Armyworm [3]: A
- Biological Activity, Mexican Bean Beetle [4]: A
- Biological Activity, House Fly [5]: A

Compound: CN(SN1CCOCC1)C(=O)ON=C1SCC(=O)NC1(C)C [2-[O-(N-Morpholinosulfenyl-N-methylcarbamoyl)oximino]-3,3-dimethyltetrahydro-1,4-thiazin-5-one]
- Biological Activity, Aphid [1]: A
- Biological Activity, Southern Armyworm [3]: A
- Biological Activity, Mexican Bean Beetle [4]: A
- Biological Activity, House Fly [5]: A

Compound: CNC(=O)ON=C1SCC(=O)N(C)C1C (stereo not shown) [2-[O-(methylcarbamoyl)oximino]-3,4-dimethyltetrahydro-1,4-thiazin-5-one]
- Biological Activity, Aphid [1]: A
- Biological Activity, Mite [2]: A
- Biological Activity, Southern Armyworm [3]: C
- Biological Activity, Mexican Bean Beetle [4]: A
- Biological Activity, House Fly [5]: A
